Measured values as given in patent US12364733B1, “Method for treating septic shock” (Inotrem, priority 2018, dated 2025).

Test system: septic shock patients
Assay: Phase IIa clinical trial with nangibotide in septic shock patients: SOFA score evolution
Type: in vivo, human
Protocol: This was a randomized, double-blind, two-stage, placebo-controlled study. As described in FIG. 7, the study was composed of 2 stages with a similar treatment regimen, in which 0.3, 1.0 or 3.0 mg/kg/h of nangibotide (corresponding to peptide LR12, having an amino acid sequence as set forth in SEQ ID NO: 9, also known as motrem) was tested versus placebo. All patients with a diagnosis of septic shock were considered for study participation. All potential study patients underwent standard care management procedures. Patients with evidence of septic shock according to the Sepsis-3 definition (Singer et al, JAMA 2016) were considered for inclusion (i.e., patients suffering from sepsis and having (i) persisting hypotension requiring vasopressors to maintain their mean arterial pressure ≥65 mm Hg and (ii) a serum lactate level >2 mmol/L (18 mg/dL) despite adequate volume resuscitation).
After screening for eligibility, patients were randomized to one of the treatment arms. Then, they received either a 5 mg/kg loading dose of nangibotide over 15 minutes followed by a continuous intravenous (i.v.) infusion of nangibotide or a matching placebo on top of standard of care. Treatment with study drug was initiated as early as possible, but no later than 24 hours after the onset of septic shock, defined by the start of vasopressor therapy. Patients were treated until 12 (±2) hours after the resolution of their septic shock (defined as vasopressor withdrawal) with a maximum treatment duration of 5 days (120 hours).
Adverse events (AEs) were coded using the MedDRA dictionary version 18.1. Treatment-emergent adverse events (TEAEs) were summarized and listed. Analysis was performed in 49 septic shock patients. The demographic and baseline characteristics were summarized in a descriptive fashion within each population: categorical variables were summarized by contingency tables (frequencies and percentages). sTREM-1 levels at day 1 were also described (mean, standard deviation, standard error, median, quartiles and range, minimum and maximum values). Mortality rates were reported by frequency and percentage. For continuous endpoints, i.e., the sequential organ failure assessment (SOFA), missing data were imputed using LOCF (Last Observation Carry-Forward). For time-to-event analyses, i.e., duration of invasive mechanical ventilation (IMV), duration of continuous renal replacement therapy (CRRT), survival, censored data techniques were utilized. In addition, a sensitivity analysis of time to event data (except survival) was performed using censoring at maximum limit for the corresponding observation period (i.e., either day 28 or day 90). […] The following comparisons were made: each nangibotide dose arm to placebo, all nangibotide doses combined versus placebo, and dose-response using an ordinal trend test. Exploratory composite endpoint: incidence (number and proportion) of patients alive at day 28 and free of vasopressor, free of IMV and free of CRRT were summarized by treatment and compared between treatments with a Fisher's exact test. For pharmacodynamic markers, log transformed data were represented as percentage change from baseline at day 5 or End of Infusion (EOI) if end of infusion was stopped before day 5. […] “All nangibotide” refers to analyses obtained by pooling data from 0.3, 1 and 3 mg/kg/h nangibotide-treated groups.

[1] = patients with low sTREM-1 at baseline (below median 433 pg/mL), Day 3, 3.0 mg/kg/h
[2] = patients with low sTREM-1 at baseline (below median 433 pg/mL), Day 3, all nangibotide doses pooled
[3] = patients with low sTREM-1 at baseline (below median 433 pg/mL), Day 4, 0.3 mg/kg/h
[4] = patients with low sTREM-1 at baseline (below median 433 pg/mL), Day 4, 1.0 mg/kg/h
[5] = patients with low sTREM-1 at baseline (below median 433 pg/mL), Day 4, 3.0 mg/kg/h
[6] = patients with low sTREM-1 at baseline (below median 433 pg/mL), Day 4, all nangibotide doses pooled
[7] = patients with low sTREM-1 at baseline (below median 433 pg/mL), Day 5, 1.0 mg/kg/h
[8] = whole population, Day 1, 0.3 mg/kg/h
[9] = whole population, Day 1, 1.0 mg/kg/h
[10] = whole population, Day 1, 3.0 mg/kg/h
[11] = whole population, Day 1, all nangibotide doses pooled
[12] = whole population, Day 2, 0.3 mg/kg/h
[13] = whole population, Day 2, 1.0 mg/kg/h
[14] = whole population, Day 2, 3.0 mg/kg/h
[15] = whole population, Day 2, all nangibotide doses pooled
[16] = whole population, Day 3, 0.3 mg/kg/h
[17] = whole population, Day 3, 1.0 mg/kg/h
[18] = whole population, Day 3, 3.0 mg/kg/h
[19] = whole population, Day 3, all nangibotide doses pooled
[20] = whole population, Day 4, 0.3 mg/kg/h
[21] = whole population, Day 4, 1.0 mg/kg/h
[22] = whole population, Day 4, 3.0 mg/kg/h
[23] = whole population, Day 4, all nangibotide doses pooled
[24] = whole population, Day 5, 1.0 mg/kg/h

How did the “SOFA score evolution (change versus baseline, LOCF), LSMean (SE)” value [1] turn out when “nangibotide (LQEEDAGEYGCM; TLT-1 peptide)” was run?
The value was −2.10 (1.35).

What about the “SOFA score, estimated difference (SE) vs. placebo” value [1] of the same substance?
Its value is 0.01 (1.69).

What about the “SOFA score evolution (change versus baseline, LOCF), LSMean (SE)” value [2] of the same substance?
The value was −2.10 (0.67).

What about the “SOFA score, estimated difference (SE) vs. placebo” value [2] of the same substance?
The value was 0.02 (1.23).

And the “SOFA score evolution (change versus baseline, LOCF), LSMean (SE)” value [3]?
The value was −2.70 (0.94).

What about the “SOFA score, estimated difference (SE) vs. placebo” value [3] of the same substance?
The value was −0.57 (1.32).

And the “SOFA score evolution (change versus baseline, LOCF), LSMean (SE)” value [4]?
Its value is −1.79 (1.03).

What about the “SOFA score, estimated difference (SE) vs. placebo” value [4] of the same substance?
The value was 0.34 (1.41).

And the “SOFA score evolution (change versus baseline, LOCF), LSMean (SE)” value [5]?
The value was −2.62 (1.24).

What about the “SOFA score, estimated difference (SE) vs. placebo” value [5] of the same substance?
The value was −0.49 (1.55).

What about the “SOFA score evolution (change versus baseline, LOCF), LSMean (SE)” value [6] of the same substance?
Its value is −2.37 (0.62).

What about the “SOFA score, estimated difference (SE) vs. placebo” value [6] of the same substance?
The value was −0.24 (1.13).

And the “SOFA score evolution (change versus baseline, LOCF), LSMean (SE)” value (patients with low sTREM-1 at baseline (below median 433 pg/mL), Day 5, 0.3 mg/kg/h)?
Its value is −2.71 (1.10).

And the “SOFA score, estimated difference (SE) vs. placebo” value (patients with low sTREM-1 at baseline (below median 433 pg/mL), Day 5, 0.3 mg/kg/h, 0.3 mg/kg)?
Its value is −0.71 (1.56).

What about the “SOFA score, estimated difference (SE) vs. placebo” value (patients with low sTREM-1 at baseline (below median 433 pg/mL), Day 5, 0.3 mg/kg/h, listed as nangibotide, 0.3 mg/kg) of the same substance?
Its value is −0.71.

What about the “SOFA score evolution (change versus baseline, LOCF), LSMean (SE)” value [7] of the same substance?
Its value is −1.93 (1.21).

And the “SOFA score, estimated difference (SE) vs. placebo” value [7]?
The value was 0.06 (1.65).

And the “SOFA score evolution (change versus baseline, LOCF), LSMean (SE)” value (patients with low sTREM-1 at baseline (below median 433 pg/mL), Day 5, 3.0 mg/kg/h)?
Its value is −1.87 (1.46).

And the “SOFA score, estimated difference (SE) vs. placebo” value (patients with low sTREM-1 at baseline (below median 433 pg/mL), Day 5, 3.0 mg/kg/h, 3 mg/kg)?
Its value is 0.12 (−1.82).

What about the “SOFA score, estimated difference (SE) vs. placebo” value (patients with low sTREM-1 at baseline (below median 433 pg/mL), Day 5, 3.0 mg/kg/h, listed as nangibotide, 3 mg/kg) of the same substance?
Its value is 0.12.

And the “SOFA score evolution (change versus baseline, LOCF), LSMean (SE)” value (patients with low sTREM-1 at baseline (below median 433 pg/mL), Day 5, all nangibotide doses pooled)?
Its value is −2.17 (0.73).

And the “SOFA score evolution (change versus baseline, LOCF), LSMean (SE)” value [8]?
Its value is −0.65 (0.52).

What about the “SOFA score, estimated difference (SE) vs. placebo” value [8] of the same substance?
The value was 0.26 (0.75).

And the “SOFA score evolution (change versus baseline, LOCF), LSMean (SE)” value [9]?
The value was −0.39 (0.54).

What about the “SOFA score, estimated difference (SE) vs. placebo” value [9] of the same substance?
Its value is 0.53 (0.77).

And the “SOFA score evolution (change versus baseline, LOCF), LSMean (SE)” value [10]?
The value was −0.33 (0.54).

And the “SOFA score, estimated difference (SE) vs. placebo” value [10]?
The value was 0.59 (0.76).

What about the “SOFA score evolution (change versus baseline, LOCF), LSMean (SE)” value [11] of the same substance?
The value was −0.45 (0.31).

What about the “SOFA score, estimated difference (SE) vs. placebo” value [11] of the same substance?
The value was 0.46 (0.62).

What about the “SOFA score evolution (change versus baseline, LOCF), LSMean (SE)” value [12] of the same substance?
The value was −2.27 (0.63).

What about the “SOFA score, estimated difference (SE) vs. placebo” value [12] of the same substance?
The value was −0.94 (0.91).

What about the “SOFA score evolution (change versus baseline, LOCF), LSMean (SE)” value [13] of the same substance?
The value was −1.97 (0.65).

What about the “SOFA score, estimated difference (SE) vs. placebo” value [13] of the same substance?
The value was −0.64 (0.92).

What about the “SOFA score evolution (change versus baseline, LOCF), LSMean (SE)” value [14] of the same substance?
The value was −0.91 (0.65).

And the “SOFA score, estimated difference (SE) vs. placebo” value [14]?
Its value is 0.42 (0.92).

And the “SOFA score evolution (change versus baseline, LOCF), LSMean (SE)” value [15]?
Its value is −1.72 (0.37).

And the “SOFA score, estimated difference (SE) vs. placebo” value [15]?
The value was −0.38 (0.75).

And the “SOFA score evolution (change versus baseline, LOCF), LSMean (SE)” value [16]?
Its value is −2.67 (0.68).

What about the “SOFA score, estimated difference (SE) vs. placebo” value [16] of the same substance?
Its value is −1.42 (0.98).

And the “SOFA score evolution (change versus baseline, LOCF), LSMean (SE)” value [17]?
Its value is −1.87 (0.71).

What about the “SOFA score, estimated difference (SE) vs. placebo” value [17] of the same substance?
Its value is −0.62 (1.00).

And the “SOFA score evolution (change versus baseline, LOCF), LSMean (SE)” value [18]?
Its value is −0.91 (0.70).

And the “SOFA score, estimated difference (SE) vs. placebo” value [18]?
The value was 0.34 (1.00).

And the “SOFA score evolution (change versus baseline, LOCF), LSMean (SE)” value [19]?
Its value is −1.82 (0.40).

What about the “SOFA score, estimated difference (SE) vs. placebo” value [19] of the same substance?
Its value is −0.57 (0.81).

And the “SOFA score evolution (change versus baseline, LOCF), LSMean (SE)” value [20]?
The value was −2.91 (0.67).

And the “SOFA score, estimated difference (SE) vs. placebo” value [20]?
The value was −1.50 (0.96).

And the “SOFA score evolution (change versus baseline, LOCF), LSMean (SE)” value [21]?
The value was −1.95 (0.70).

What about the “SOFA score, estimated difference (SE) vs. placebo” value [21] of the same substance?
Its value is −0.53 (0.98).

What about the “SOFA score evolution (change versus baseline, LOCF), LSMean (SE)” value [22] of the same substance?
Its value is −1.16 (0.69).

What about the “SOFA score, estimated difference (SE) vs. placebo” value [22] of the same substance?
Its value is 0.26 (0.98).

And the “SOFA score evolution (change versus baseline, LOCF), LSMean (SE)” value [23]?
Its value is −2.00 (0.40).

What about the “SOFA score, estimated difference (SE) vs. placebo” value [23] of the same substance?
Its value is −0.59 (0.80).

And the “SOFA score evolution (change versus baseline, LOCF), LSMean (SE)” value (whole population, Day 5, 0.3 mg/kg/h)?
The value was −2.91 (0.71).

And the “SOFA score, estimated difference (SE) vs. placebo” value (whole population, Day 5, 0.3 mg/kg/h, 0.3 mg/kg)?
Its value is −1.66 (1.03).

And the “SOFA score, estimated difference (SE) vs. placebo” value (whole population, Day 5, 0.3 mg/kg/h, listed as nangibotide, 0.3 mg/kg)?
Its value is −1.66.

And the “SOFA score evolution (change versus baseline, LOCF), LSMean (SE)” value [24]?
Its value is −2.03 (0.74).

And the “SOFA score, estimated difference (SE) vs. placebo” value [24]?
The value was −0.78 (1.04).

What about the “SOFA score evolution (change versus baseline, LOCF), LSMean (SE)” value (whole population, Day 5, 3.0 mg/kg/h) of the same substance?
Its value is −0.90 (0.74).

And the “SOFA score, estimated difference (SE) vs. placebo” value (whole population, Day 5, 3.0 mg/kg/h, 3 mg/kg)?
Its value is 0.34 (1.04).

What about the “SOFA score, estimated difference (SE) vs. placebo” value (whole population, Day 5, 3.0 mg/kg/h, listed as nangibotide, 3 mg/kg) of the same substance?
The value was 0.34.

What about the “SOFA score evolution (change versus baseline, LOCF), LSMean (SE)” value (whole population, Day 5, all nangibotide doses pooled) of the same substance?
Its value is −1.95 (0.42).

And the “SOFA score decrease during the first 5 days vs. placebo” value (whole population, no statistically significant differences)?
The value was “consistent numerical trend in favor of nangibotide”.
